Test results as given in patent US10392373B2, “Oxazole derivatives that inhibit Syk” (AB Science, priority 2015, dated 2019).

These molecules were tested against T1, SYK kinase (Homo sapiens, UniProt P43405) (assay: In vitro Syk inhibition assay (Kinase TK HTRF, Cisbio)). Settings: full length SYK purified from a baculovirus system; ATP at least twice the Km; room temperature; average of triplicate; read-out: IC50: Concentration inhibiting 50% of protein kinase.
T1 construct: SYK kinase was purified as a full length protein in a baculovirus system near homogeneity; made in house
Type: biochemical
Protocol: Protocol Inhibition Assays.
SYK kinase was purified as a full length protein in a baculovirus system near homogeneity. All kinase assays were performed with the Kinase TK (tyrosine kinase) HTRF (Homogeneous Time Resolved Fluorescence) assay developed by Cisbio international. These assays were carried out at room temperature in 96-wells half-area white plates in a final volume of 25 μl of kinase buffer (10 mM MgCl2; 2 mM MnCl2; 50 mM Sodium-HEPES pH 7.8; BRIJ-35 0.01%, 1 μM substrate) containing ATP at a concentration of at least twice the Km for each enzyme and an appropriate amount of recombinant enzyme to ensure a linear reaction rate. Reactions were initiated upon introduction of the enzyme and terminated with the addition of one reaction volume (25 μl) of HTRF detection buffer. Plates were incubated for one hour at room temperature and the time resolved Fluorescence resonance energy transfer signal was measured in a Pherastar FS microplate reader (BMG Labtech). All data are the average of triplicate results with a standard deviation <10%.

Row | SMILES | IC50
1 | Cc1cnc(Nc2cccc(-c3cnc(N4CCNC(=O)C4(C)C)o3)c2)nc1C [Compound 022, 4-{5-[3-(4,5-Dimethyl-pyrimidin-2-ylamino)-phenyl]-oxazol-2-yl}-3,3-dimethyl-piperazin-2-one] | 1000 to 10000 nM
2 | CC1C(=O)NCCN1c1ncc(-c2cc(CN3CCOCC3)cc(Nc3nccc(C(F)(F)F)n3)c2)o1 (stereo not shown) [Compound 015, 3-Methyl-4-{5-[3-morpholin-4-ylmethyl-5-((4-trifluoromethyl)-pyrimidin-2-ylamino)-phenyl]-oxazol-2-yl}-piperazin-2-one] | ≤ 100 nM
3 | CN1CCN(c2ccnc(Nc3cccc(-c4cnc(N5CCNC(=O)C5(C)C)o4)c3)n2)CC1 [Compound 031, 3,3-Dimethyl-4-(5-{3-[4-(4-methyl-piperazin-1-yl)-pyrimidin-2-ylamino]-phenyl}-oxazol-2-yl)-piperazin-2-one] | 1000 to 10000 nM
4 | CC1(C)C(=O)NCCN1c1ncc(-c2cccc(Nc3nccc(C(F)(F)F)n3)c2)o1 [Compound 018, 3,3-Dimethyl-4-{5-[3-((4-trifluoromethyl)-pyrimidin-2-ylamino)-phenyl]-oxazol-2-yl}-piperazin-2-one] | ≤ 100 nM
5 | Cc1ccnc(Nc2cc(CN3CCOCC3)cc(-c3cnc(N4CCNC(=O)C4C)o3)c2)n1 (stereo not shown) [Compound 014, 3-Methyl-4-{5-[3-(4-methyl-pyrimidin-2-ylamino)-5-morpholin-4-ylmethyl-phenyl]-oxazol-2-yl}-piperazin-2-one] | 100 to 1000 nM

Next, values leading:

Row | IC50 | SMILES
6 | 1000 to 10000 nM | CC1C(=O)NCCN1c1ncc(-c2cccc(Nc3nccc(N4CCN(C)CC4)n3)c2)o1 (stereo not shown) [Compound 029, 3-Methyl-4-(5-{3-[4-(4-methyl-piperazin-1-yl)-pyrimidin-2-ylamino]-phenyl}-oxazol-2-yl)-piperazin-2-one]
7 | ≤ 100 nM | CC(C)c1ccnc(Nc2cccc(-c3cnc(N4CCNC(=O)C4C(C)C)o3)c2)n1 (stereo not shown) [Compound 036, 3-Isopropyl-4-{5-[3-(4-isopropyl-pyrimidin-2-ylamino)-phenyl]-oxazol-2-yl}-piperazin-2-one]
8 | ≤ 100 nM | CC1C(=O)NCCN1c1ncc(-c2cccc(Nc3nccc(C#N)n3)c2)o1 (stereo not shown) [Compound 017, 2-{3-[2-(2-Methyl-3-oxo-piperazin-1-yl)-oxazol-5-yl]-phenylamino}-pyrimidine-4-carbonitrile]
9 | ≤ 100 nM | CC(C)C1C(=O)NCCN1c1ncc(-c2cccc(Nc3nccc(C(F)(F)F)n3)c2)o1 (stereo not shown) [Compound 012, 3-Isopropyl-4-{5-[3-((4-trifluoromethyl)-pyrimidin-2-ylamino)-phenyl]-oxazol-2-yl}-piperazin-2-one]
10 | 1000 to 10000 nM | CC(C)C1C(=O)NCCN1c1ncc(-c2cccc(Nc3nccc(N4CCCC4)n3)c2)o1 (stereo not shown) [Compound 034, 3-Isopropyl-4-{5-[3-(4-pyrrolidin-1-yl-pyrimidin-2-ylamino)-phenyl]-oxazol-2-yl}-piperazin-2-one]
